Where two headings read alike, the source gives them in different places.
Key:
Na—K—Cl cotransport = target: T1, Na—K—Cl cotransport (Bos taurus, UniProt F1MS08); test: K influx (86Rb) in bovine TM cell monolayers; type: cell-based
T1 sequence (F1MS08 1-1204): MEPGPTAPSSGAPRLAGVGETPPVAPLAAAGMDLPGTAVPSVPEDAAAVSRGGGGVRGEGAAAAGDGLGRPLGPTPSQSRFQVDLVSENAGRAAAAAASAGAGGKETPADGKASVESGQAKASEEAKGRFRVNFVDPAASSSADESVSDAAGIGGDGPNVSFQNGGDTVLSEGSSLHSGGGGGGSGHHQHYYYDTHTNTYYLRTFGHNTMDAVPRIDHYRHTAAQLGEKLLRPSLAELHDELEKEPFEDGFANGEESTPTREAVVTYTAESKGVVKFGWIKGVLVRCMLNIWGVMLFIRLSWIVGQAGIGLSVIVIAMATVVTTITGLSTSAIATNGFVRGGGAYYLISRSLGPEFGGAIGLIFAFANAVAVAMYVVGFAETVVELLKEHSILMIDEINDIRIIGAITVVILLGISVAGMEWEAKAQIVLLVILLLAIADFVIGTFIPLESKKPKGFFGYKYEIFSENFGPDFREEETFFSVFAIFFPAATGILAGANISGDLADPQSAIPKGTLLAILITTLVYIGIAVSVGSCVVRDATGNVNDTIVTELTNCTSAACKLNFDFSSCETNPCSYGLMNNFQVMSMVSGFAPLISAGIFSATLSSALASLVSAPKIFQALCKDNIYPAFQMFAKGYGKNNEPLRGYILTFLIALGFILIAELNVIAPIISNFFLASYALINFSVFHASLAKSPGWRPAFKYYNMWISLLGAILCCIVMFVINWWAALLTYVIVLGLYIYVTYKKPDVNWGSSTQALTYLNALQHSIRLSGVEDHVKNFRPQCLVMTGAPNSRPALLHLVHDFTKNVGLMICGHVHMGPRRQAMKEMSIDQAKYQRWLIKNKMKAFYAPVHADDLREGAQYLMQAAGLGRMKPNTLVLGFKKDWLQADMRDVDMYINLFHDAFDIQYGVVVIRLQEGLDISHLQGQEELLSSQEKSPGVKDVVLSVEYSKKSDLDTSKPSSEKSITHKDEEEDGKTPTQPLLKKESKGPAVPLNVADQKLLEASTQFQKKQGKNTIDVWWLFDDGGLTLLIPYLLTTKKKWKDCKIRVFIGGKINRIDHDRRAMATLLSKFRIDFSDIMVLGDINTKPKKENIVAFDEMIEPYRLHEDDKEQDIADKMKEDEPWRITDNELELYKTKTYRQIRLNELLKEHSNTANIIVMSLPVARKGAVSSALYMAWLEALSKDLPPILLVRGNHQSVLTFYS
Protocol: Details of this method have been published previously (O'Donnell, M. E., supra, 1989). Briefly, bovine or human TM cell monolayers on 24 well plates were equilibrated for 10 minutes at 37° C. in a Hepes-buffered minimal essential medium (MEM) containing (in mM): 144 Na, 147 Cl, 5.8 K, 1.2 Ca, 4.2 HCO3, 0.4 H2PO4, […], 0.4 SO4, 5.6 glucose and 20 Hepes. […] The assay medium also contained ^86Rb (1 μCi/ml) (Dupont New England Nuclear, Boston, Mass.). The assay was terminated by rinsing the wells with ice-cold isotonic MgCl2, then extracting the contents with 0.2% sodium dodecyl sulfate (SDS), and determining the amount of radioactive contents by liquid scintillation. Osmolarities of all preincubation and assay media were verified by osmometry (Model 3W2, Advanced Instruments, Norwood, Mass.).
The effects of hormones, neurotransmitters and second messengers on Bumetanide-sensitive K influx of bovine trabecular meshwork cells were assessed using the procedures of Example 1. […] The control is the Hepes-buffered medium containing Na, K, Cl, CA and other ions as described in Example 1B. […] The data represent the mean values±SEM of quadruplicate determinations from two experiments.

[1] = test system: Na+—K+—2Cl− cotransporter
Protocol: Thus, studies were conducted to determine the magnitude of net K uptake mediated by the TM cell Na^+—K^+—2Cl^− cotransporter. For determination of the net potassium uptake, the potassium contents of TM cells were evaluated by atomic absorption spectrophotometry, as described previously by O'Donnell, M. E. (supra, 1993). Briefly, cells were preincubated in 10 μM bumetanide for 5 minutes, and assayed as described above, with the exception that no ^86Rb was present during the assay. Cell ionic contents were extracted with 5% trichloroacetic acid following removal of extracellular potassium by washing the monolayers with ice-cold 0.1 M MgCl2.

## CCCCNc1cc(C(=O)O)cc(S(N)(=O)=O)c1Oc1ccccc1 [bumetanide]
Na—K—Cl cotransport; 10 μM bumetanide, total K uptake without drug 49±1.47
  K influx: 22.09±1.14 μmol K/gm protein/min
Na—K—Cl cotransport; with Na/K pump inhibition (ouabain)
  BUMETANIDE-SENSITIVE K INFLUX: 20.1 μmol K/gm protein/min
Na—K—Cl cotransport; without Na/K pump inhibition
  BUMETANIDE-SENSITIVE K INFLUX: 26.9 μmol K/gm protein/min
[1]; Cl omitted from the incubation medium, n=8
  bumetanide-sensitive net K uptake: −2.62±2.82 μmol K/gm protein/min
[1]; Na omitted from the incubation medium, n=8
  bumetanide-sensitive net K uptake: 1.71±2.49 μmol K/gm protein/min
[1]; steady state, 10 μM bumetanide
  bumetanide-sensitive net K uptake: 7.78=1.98 μmol K/gm protein/min
